Values after ≈ are worked out from the molar mass of the structure shown. Active and inactive are the calls of the source. The calls are words filed in the database; no cut-off is given here.
Tested on: Mycobacterium intracellulare
Assay: Antimycobacterial activity against Mycobacterium intracellular ATCC 23068 after 48 hrs
Type: functional
Conditions: for MIC: ATCC 23068, 48 h

Molecule CO[C@H]1/C=C/O[C@@]2(C)Oc3c(C)c(O)c4c(O)c(c(/C=N/N5CCN(C)CC5)c(O)c4c3C2=O)NC(=O)/C(C)=C\C=C\[C@H](C)[C@H](O)[C@@H](C)[C@@H](O)[C@@H](C)[C@H](OC(C)=O)[C@@H]1C [RIFAMPIN] has an MIC of 0.3 µg/mL (≈ 0.365 µM).
CC(C)=C[C@H]1C[C@](C)(O)[C@@H]2[C@H]3CC[C@@H]4[C@@]5(C)CC[C@H](O[C@@H]6OC[C@H](O)[C@H](O[C@@H]7O[C@H](CO)[C@@H](O)[C@H](O)[C@H]7OC(=O)/C=C/c7ccc(O)cc7)[C@H]6O[C@@H]6O[C@@H](CO)[C@H](O)[C@H]6O)C(C)(C)[C@@H]5CC[C@@]4(C)[C@@]34CO[C@@]2(C4)O1 was tested, and the MIC was 50 µg/mL (≈ 47.8 µM).
With CC(C)=C[C@H]1C[C@](C)(O)[C@@H]2[C@H]3CC[C@@H]4[C@@]5(C)CC[C@H](O[C@@H]6OC[C@H](O)[C@H](O[C@@H]7O[C@H](CO)[C@@H](O)[C@H](O)[C@H]7O)[C@H]6O[C@@H]6O[C@@H](CO)[C@H](O)[C@H]6O)C(C)(C)[C@@H]5CC[C@@]4(C)[C@@]34CO[C@@]2(C4)O1 the Activity was “inactive”.
For CC(C)=C[C@H]1C[C@](C)(O)[C@@H]2[C@H]3CC[C@@H]4[C@@]5(C)CC[C@H](O[C@@H]6OC[C@H](O)[C@H](O[C@@H]7O[C@H](CO)[C@@H](O)[C@H](OC(=O)/C=C/c8ccc(O)cc8)[C@H]7O)[C@H]6O[C@@H]6O[C@@H](CO)[C@H](O)[C@H]6O)C(C)(C)[C@@H]5CC[C@@]4(C)[C@@]34CO[C@@]2(C4)O1, the MIC was 10 µg/mL (≈ 9.57 µM).

From ChEMBL document CHEMBL1144118, “New antimycobacterial saponin from Colubrina retusa” (1999)
